Active and inactive are the calls of the source. No cut-off for these calls is given here.
Each molecule was assayed on ARPE-19 (assay: Antiproliferative activity against human ARPE19 cells at 30 uM after 48 hrs in presence of hypoxic condition by MTT assay). Conditions: arpe-19, 48 h.
Assay type: cell-based

Row | SMILES | Activity
1 | NS(=O)(=O)c1ccc(-c2noc(-c3cccs3)n2)cc1 | Non-Toxic
2 | NS(=O)(=O)c1cccc(-c2noc(-c3ccsc3)n2)c1 | Non-Toxic
3 | NS(=O)(=O)c1cc(-c2nc(-c3ccccn3)no2)cs1 | Non-Toxic
4 | NS(=O)(=O)c1cc(-c2nc(C3CC3)no2)cs1 | Non-Toxic

These molecules were tested on SK-MEL-2 (assay: Antiproliferative activity against human SK-MEL-2 cells at 300 uM after 48 hrs in presence of hypoxic condition by MTT assay). Conditions: not given.
Assay type: functional, cell-based

Row | SMILES | Activity
5 | NS(=O)(=O)c1ccc(-c2noc(-c3cccs3)n2)cc1 | inactive
6 | NS(=O)(=O)c1cccc(-c2noc(-c3ccsc3)n2)c1 | inactive

What follows are molecules tested on SK-MEL-2 (assay: Antiproliferative activity against human SK-MEL-2 cells after 48 hrs in presence of hypoxic condition by MTT assay). Conditions: not given.
Assay type: functional, cell-based

Row | SMILES | Activity
7 | COc1cccc(-c2noc(-c3csc(S(N)(=O)=O)c3)n2)c1 | inactive

What follows are molecules tested on SK-MEL-2 (assay: Antiproliferative activity against human SK-MEL-2 cells after 48 hrs in presence of normoxic condition by MTT assay). Conditions: not given.
Assay type: functional, cell-based

Row | SMILES | Activity
8 | COc1cccc(-c2noc(-c3csc(S(N)(=O)=O)c3)n2)c1 | inactive

These molecules were tested on PANC-1 (assay: Antiproliferative activity against human PANC1 cells at 30 uM after 48 hrs in presence of hypoxic condition by MTT assay). Conditions: not given.
Assay type: functional, cell-based

Row | SMILES | Activity
9 | NS(=O)(=O)c1cc(-c2nc(C3CC3)no2)cs1 | Active

These molecules were tested against Carbonic anhydrase 9 (Homo sapiens, UniProt Q16790). Conditions: not given.

Row | Ki | SMILES
10 | 2.1 nM | NS(=O)(=O)c1cc(-c2noc(C3CC3)n2)cs1
11 | 0.24 nM | NS(=O)(=O)c1cc(-c2nc(-c3ccccc3)no2)cs1
12 | 0.44 nM | NS(=O)(=O)c1ccc(-c2noc(-c3ccncc3)n2)cc1
13 | 2.2 nM | COc1cccc(-c2noc(-c3csc(S(N)(=O)=O)c3)n2)c1
14 | 0.089 nM | NS(=O)(=O)c1cc(-c2nc(C3CC3)no2)cs1

Further lines, the molecule ahead of its results:

Row | SMILES | Ki
15 | NS(=O)(=O)c1ccc(-c2noc(-c3cccs3)n2)cc1 | 0.36 nM
16 | COc1cc(S(N)(=O)=O)ccc1-c1noc(-c2ccsc2)n1 | 15.9 nM
17 | COc1ccccc1-c1noc(-c2csc(S(N)(=O)=O)c2)n1 | 0.13 nM
18 | NS(=O)(=O)c1cc(-c2nc(-c3ccccn3)no2)cs1 | 0.39 nM

These molecules were tested on SK-MEL-2 (assay: Antiproliferative activity against human SK-MEL-2 cells at 300 uM after 48 hrs in presence of normoxic condition by MTT assay). Conditions: not given.
Assay type: functional, cell-based

Row | SMILES | Activity
19 | NS(=O)(=O)c1ccc(-c2noc(-c3cccs3)n2)cc1 | inactive
20 | NS(=O)(=O)c1cccc(-c2noc(-c3ccsc3)n2)c1 | inactive

Each molecule was assayed on PANC-1 (assay: Antiproliferative activity against human PANC1 cells after 48 hrs in presence of hypoxic condition by MTT assay). Conditions: not given.
Assay type: functional, cell-based

Row | SMILES | Activity
21 | COc1cccc(-c2noc(-c3csc(S(N)(=O)=O)c3)n2)c1 | Dose-dependent effect
22 | NS(=O)(=O)c1cc(-c2nc(-c3ccccn3)no2)cs1 | Dose-dependent effect

Each molecule was assayed against Carbonic anhydrase 1 (Homo sapiens, UniProt P00915) (assay: Inhibition of human carbonic anhydrase 1 assessed as reduction in CO2 hydration after 15 mins by phenol red staining-based stopped flow assay). Conditions: not given.
Sequence of Carbonic anhydrase 1 (P00915 whole entry): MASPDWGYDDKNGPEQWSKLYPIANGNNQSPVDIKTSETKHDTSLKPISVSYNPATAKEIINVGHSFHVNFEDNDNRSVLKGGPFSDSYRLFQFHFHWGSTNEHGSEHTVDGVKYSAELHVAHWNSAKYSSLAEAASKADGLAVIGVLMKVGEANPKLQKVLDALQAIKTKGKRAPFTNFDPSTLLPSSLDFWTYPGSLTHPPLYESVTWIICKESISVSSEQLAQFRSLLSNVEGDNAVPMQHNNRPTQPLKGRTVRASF

Row | Ki | SMILES
23 | 53 nM | NS(=O)(=O)c1cc(-c2noc(C3CC3)n2)cs1
24 | 8.9 nM | NS(=O)(=O)c1cc(-c2nc(-c3ccccc3)no2)cs1
25 | 48 nM | NS(=O)(=O)c1ccc(-c2noc(-c3ccncc3)n2)cc1
26 | 5.4 nM | COc1cccc(-c2noc(-c3csc(S(N)(=O)=O)c3)n2)c1
27 | 9.3 nM | NS(=O)(=O)c1cc(-c2nc(C3CC3)no2)cs1

The remaining lines, values behind:

Row | SMILES | Ki
28 | NS(=O)(=O)c1ccc(-c2noc(-c3cccs3)n2)cc1 | 7.9 nM
29 | COc1cc(S(N)(=O)=O)ccc1-c1noc(-c2ccsc2)n1 | 1160 nM
30 | COc1ccccc1-c1noc(-c2csc(S(N)(=O)=O)c2)n1 | 16.2 nM
31 | NS(=O)(=O)c1cc(-c2nc(-c3ccccn3)no2)cs1 | 25 nM

These molecules were tested on PANC-1 (assay: Antiproliferative activity against human PANC1 cells at 30 uM after 48 hrs in presence of normoxic condition by MTT assay). Conditions: not given.
Assay type: functional, cell-based

Row | SMILES | Activity
32 | NS(=O)(=O)c1cc(-c2nc(C3CC3)no2)cs1 | Active

These molecules were tested on ARPE-19 (assay: Antiproliferative activity against human ARPE19 cells at 30 to 300 uM after 48 hrs in presence of normoxic condition by MTT assay). Conditions: arpe-19, 48 h.
Assay type: cell-based

Row | SMILES | Activity
33 | COc1cccc(-c2noc(-c3csc(S(N)(=O)=O)c3)n2)c1 | Non-Toxic

Each molecule was assayed on SK-MEL-2 (assay: Antiproliferative activity against human SK-MEL-2 cells at 30 uM after 48 hrs in presence of hypoxic condition by MTT assay). Conditions: not given.
Assay type: functional, cell-based

Row | SMILES | Activity
34 | NS(=O)(=O)c1ccc(-c2noc(-c3cccs3)n2)cc1 | inactive
35 | NS(=O)(=O)c1cccc(-c2noc(-c3ccsc3)n2)c1 | inactive
36 | NS(=O)(=O)c1cc(-c2nc(-c3ccccn3)no2)cs1 | inactive
37 | NS(=O)(=O)c1cc(-c2nc(C3CC3)no2)cs1 | Active

The molecules below were run on ARPE-19 (assay: Antiproliferative activity against human ARPE19 cells at 300 uM after 48 hrs in presence of normoxic condition by MTT assay). Conditions: arpe-19, 48 h.
Assay type: cell-based

Row | SMILES | Activity
38 | NS(=O)(=O)c1ccc(-c2noc(-c3cccs3)n2)cc1 | Toxic
39 | NS(=O)(=O)c1cc(-c2nc(-c3ccccc3)no2)cs1 | Toxic
40 | NS(=O)(=O)c1cccc(-c2noc(-c3ccsc3)n2)c1 | Toxic

Each molecule was assayed against Carbonic anhydrase 12 (Homo sapiens, UniProt O43570). Conditions: not given.
Sequence of Carbonic anhydrase 12 (O43570 whole entry): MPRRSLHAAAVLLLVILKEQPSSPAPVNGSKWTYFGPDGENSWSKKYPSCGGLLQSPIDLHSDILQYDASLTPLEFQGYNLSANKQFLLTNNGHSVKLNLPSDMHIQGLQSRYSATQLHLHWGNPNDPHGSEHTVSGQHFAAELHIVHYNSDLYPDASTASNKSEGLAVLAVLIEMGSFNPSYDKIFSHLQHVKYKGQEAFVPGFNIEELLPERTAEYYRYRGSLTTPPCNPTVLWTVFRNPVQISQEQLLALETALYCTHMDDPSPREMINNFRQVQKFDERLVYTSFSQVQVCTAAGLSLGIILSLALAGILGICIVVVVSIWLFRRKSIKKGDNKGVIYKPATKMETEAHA

Row | Ki | SMILES
41 | 9.2 nM | NS(=O)(=O)c1cc(-c2noc(C3CC3)n2)cs1
42 | 9.8 nM | NS(=O)(=O)c1cc(-c2nc(-c3ccccc3)no2)cs1
43 | 8.2 nM | NS(=O)(=O)c1ccc(-c2noc(-c3ccncc3)n2)cc1
44 | 33.6 nM | COc1cccc(-c2noc(-c3csc(S(N)(=O)=O)c3)n2)c1
45 | 10.3 nM | NS(=O)(=O)c1cc(-c2nc(C3CC3)no2)cs1

Further lines, the molecule ahead of its results:

Row | SMILES | Ki
46 | NS(=O)(=O)c1ccc(-c2noc(-c3cccs3)n2)cc1 | 8.3 nM
47 | COc1cc(S(N)(=O)=O)ccc1-c1noc(-c2ccsc2)n1 | 32.1 nM
48 | COc1ccccc1-c1noc(-c2csc(S(N)(=O)=O)c2)n1 | 8.8 nM
49 | NS(=O)(=O)c1cc(-c2nc(-c3ccccn3)no2)cs1 | 8.5 nM

These molecules were tested on ARPE-19 (assay: Antiproliferative activity against human ARPE19 cells at 30 uM after 48 hrs in presence of normoxic condition by MTT assay). Conditions: arpe-19, 48 h.
Assay type: cell-based

Row | SMILES | Activity
50 | NS(=O)(=O)c1ccc(-c2noc(-c3cccs3)n2)cc1 | Non-Toxic
51 | NS(=O)(=O)c1cccc(-c2noc(-c3ccsc3)n2)c1 | Non-Toxic
52 | NS(=O)(=O)c1cc(-c2nc(-c3ccccn3)no2)cs1 | Non-Toxic
53 | NS(=O)(=O)c1cc(-c2nc(C3CC3)no2)cs1 | Non-Toxic

Each molecule was assayed on SK-MEL-2 (assay: Antiproliferative activity against human SK-MEL-2 cells at 30 uM after 48 hrs in presence of normoxic condition by MTT assay). Conditions: not given.
Assay type: functional, cell-based

Row | SMILES | Activity
54 | NS(=O)(=O)c1ccc(-c2noc(-c3cccs3)n2)cc1 | inactive
55 | NS(=O)(=O)c1cccc(-c2noc(-c3ccsc3)n2)c1 | inactive
56 | NS(=O)(=O)c1cc(-c2nc(-c3ccccn3)no2)cs1 | inactive
57 | NS(=O)(=O)c1cc(-c2nc(C3CC3)no2)cs1 | Active

The molecules below were run on PANC-1 (assay: Antiproliferative activity against human PANC1 cells after 48 hrs in presence of normoxic condition by MTT assay). Conditions: not given.
Assay type: functional, cell-based

Row | SMILES | Activity
58 | COc1cccc(-c2noc(-c3csc(S(N)(=O)=O)c3)n2)c1 | Dose-dependent effect
59 | NS(=O)(=O)c1cc(-c2nc(-c3ccccn3)no2)cs1 | Dose-dependent effect

The molecules below were run against Carbonic anhydrase 2 (Homo sapiens, UniProt P00918) (assay: Inhibition of human carbonic anhydrase 2 assessed as reduction in CO2 hydration after 15 mins by phenol red staining-based stopped flow assay). Conditions: not given.

Row | Ki | SMILES
60 | 0.88 nM | NS(=O)(=O)c1cc(-c2noc(C3CC3)n2)cs1
61 | 1.7 nM | NS(=O)(=O)c1cc(-c2nc(-c3ccccc3)no2)cs1
62 | 0.3 nM | NS(=O)(=O)c1ccc(-c2noc(-c3ccncc3)n2)cc1
63 | 0.82 nM | COc1cccc(-c2noc(-c3csc(S(N)(=O)=O)c3)n2)c1
64 | 0.75 nM | NS(=O)(=O)c1cc(-c2nc(C3CC3)no2)cs1

Further lines, the molecule ahead of its results:

Row | SMILES | Ki
65 | NS(=O)(=O)c1ccc(-c2noc(-c3cccs3)n2)cc1 | 0.39 nM
66 | COc1cc(S(N)(=O)=O)ccc1-c1noc(-c2ccsc2)n1 | 92.1 nM
67 | COc1ccccc1-c1noc(-c2csc(S(N)(=O)=O)c2)n1 | 0.64 nM
68 | NS(=O)(=O)c1cc(-c2nc(-c3ccccn3)no2)cs1 | 4.3 nM

These molecules were tested on ARPE-19 (assay: Antiproliferative activity against human ARPE19 cells at 30 to 300 uM after 48 hrs in presence of hypoxic condition by MTT assay). Conditions: arpe-19, 48 h.
Assay type: cell-based

Row | SMILES | Activity
69 | COc1cccc(-c2noc(-c3csc(S(N)(=O)=O)c3)n2)c1 | Non-Toxic
70 | NS(=O)(=O)c1cc(-c2nc(-c3ccccn3)no2)cs1 | Non-Toxic

The molecules below were run on PANC-1 (assay: Antiproliferative activity against human PANC1 cells at 300 uM after 48 hrs in presence of normoxic condition by MTT assay). Conditions: not given.
Assay type: functional, cell-based

Row | SMILES | Activity
71 | NS(=O)(=O)c1cc(-c2nc(-c3ccccc3)no2)cs1 | Active

The molecules below were run on ARPE-19 (assay: Antiproliferative activity against human ARPE19 cells at 300 uM after 48 hrs in presence of hypoxic condition by MTT assay). Conditions: arpe-19, 48 h.
Assay type: cell-based

Row | SMILES | Activity
72 | NS(=O)(=O)c1ccc(-c2noc(-c3cccs3)n2)cc1 | Toxic
73 | NS(=O)(=O)c1cc(-c2nc(-c3ccccc3)no2)cs1 | Toxic
74 | NS(=O)(=O)c1cccc(-c2noc(-c3ccsc3)n2)c1 | Toxic

The molecules below were run on PANC-1 (assay: Antiproliferative activity against human PANC1 cells at 300 uM after 48 hrs in presence of hypoxic condition by MTT assay). Conditions: not given.
Assay type: functional, cell-based

Row | SMILES | Activity
75 | NS(=O)(=O)c1cc(-c2nc(-c3ccccc3)no2)cs1 | Active

The molecules below were run on PANC-1 (assay: Antiproliferative activity against human PANC1 cells at 30 to 300 uM after 48 hrs in presence of hypoxic condition by MTT assay). Conditions: not given.
Assay type: functional, cell-based

Row | SMILES | Activity
76 | NS(=O)(=O)c1ccc(-c2noc(-c3cccs3)n2)cc1 | inactive
77 | COc1cccc(-c2noc(-c3csc(S(N)(=O)=O)c3)n2)c1 | Active
78 | NS(=O)(=O)c1cccc(-c2noc(-c3ccsc3)n2)c1 | inactive
79 | NS(=O)(=O)c1cc(-c2nc(-c3ccccn3)no2)cs1 | inactive

What follows are molecules tested on PANC-1 (assay: Antiproliferative activity against human PANC1 cells at 30 to 300 uM after 48 hrs in presence of normoxic condition by MTT assay). Conditions: not given.
Assay type: functional, cell-based

Row | SMILES | Activity
80 | NS(=O)(=O)c1ccc(-c2noc(-c3cccs3)n2)cc1 | inactive
81 | COc1cccc(-c2noc(-c3csc(S(N)(=O)=O)c3)n2)c1 | Active
82 | NS(=O)(=O)c1cccc(-c2noc(-c3ccsc3)n2)c1 | inactive

Source: ChEMBL document CHEMBL4422619, “Continued exploration of 1,2,4-oxadiazole periphery for carbonic anhydrase-targeting primary arene sulfonamides: Discovery of subnanomolar inhibitors of membrane-bound hCA IX isoform that selectively kill cancer cells in hypoxic environment” (Eur J Med Chem, 2019)
